For 50 molecules, EC90 results are on record in patent US8697694B2, “Substituted pyridine and pyrimidine derivatives and their use in treating viral infections” (priority 2008, dated 2014).

Some results are limits rather than exact numbers.

In the first experiment the test system is HCV replicon cells. Briefly: Cell-based HCV replicon assay (replicon RNA level by real time PCR, Taqman). The conditions noted are these: Hepatitis C virus, 72 h, HCV replicon cells, harvested day 3, replicon RNA by real time PCR; given as number; read-out: EC90 (μM) range. As for the experimental part: Assays Cell-Based HCV Replicon Assay
To measure cell-based anti-HCV activity of the compounds of the present invention, replicon cells were seeded at 5000 cells/well in 96-well collagen I-coated Nunc plates in the presence of the compound of the invention. Various concentrations of a compound of the invention, typically in 10 serial 2-fold dilutions, were added to the assay mixture, the starting concentration of the compound ranging from 25 μM to 1 μM. The final concentration of DMSO was 0.5%, fetal bovine serum was 10%, in the assay media. Cells were harvested on day 3 by the addition of 1× cell lysis buffer (Ambion cat #8721). The replicon RNA level was measured using real time PCR (Taqman assay). The amplicon was located in 5B. The PCR primers were: 5B.2F, ATGGACAGGCGCCCTGA (SEQ. ID NO. 1); 5B.2R, […] (SEQ. ID NO. 2); the probe sequence was FAM-labeled CACGCCATGCGCTGCGG (SEQ. ID NO. 3). GAPDH RNA was used as endogenous control and was amplified in the same reaction as NS5B (multiplex PCR) using primers and VIC-labeled probe recommended by the manufacturer (PE Applied Biosystem). The real-time RT-PCR reactions were run on ABI PRISM 7900HT Sequence Detection System using the following program: 48′C for 30 min, 95° C. for 10 min, 40 cycles of 95° C. for 15 sec, 60° C. for 1 min. The ΔCT values (CT5B-CTGAPDH) were plotted against the concentration of test compound and fitted to the sigmoid dose-response model using GraphPad PRISM software. EC50 was defined as the concentration of inhibitor necessary to achieve ΔCT=1 over the projected baseline; EC90 the concentration necessary to achieve ΔCT=3.2 over the baseline. Alternatively, to quantitate the absolute amount of replicon RNA, a standard curve was established by including serially diluted T7 transcripts of replicon RNA in the Taqman assay. All Taqman reagents were from PE Applied Biosystems. Such an assay procedure was described in detail in e.g. Malcolm et al., Antimicrobial Agents and Chemotherapy 50: 1013-1020 (2006).
HCV Replicon assay data for compounds of the invention that were tested was obtained using the above method. Calculated EC90 values are reported for each compound in Table I as a falling within the following ranges: […]
A general note: In antiviral work, replicon cells carry a viral genome segment that copies itself.
Usually EC90 stands for the point of the concentration-response curve where the effect stands at 90%. With `Cc1nc(NCC2CC2)nc(N[C@@H]2C[C@H](CO)[C@@H](O)[C@H]2O)c1-c1cc2cc(OCC(C)(C)C)nc(C)c2o1` [Example 45], the EC90 is above 25 µM. The same measure, in the same setting: the result for `Cc1nc(NCC(C)(C)C)nc(N[C@@H]2C[C@H](CO)[C@@H](O)[C@H]2O)c1-c1cc2cc(OCC(F)(F)F)nc(C)c2o1` [Example 46] reads 0.85 µM. On the same count and under the same terms, the result for `Cc1nc(NCC2CC2)nc(N[C@@H]2C[C@H](CO)[C@@H](O)[C@H]2O)c1-c1cc2cc(OCC(F)(F)F)nc(C)c2o1` [Example 47] reads 0.4 µM; that for `CCC(CC)Oc1cc2cc(-c3c(C)nc(NCCOC)nc3N[C@@H]3C[C@H](CO)[C@@H](O)[C@H]3O)oc2c(C)n1` [Example 48], above 25 µM; that for `COCCNc1nc(C)c(-c2cc3cc(OCC(C)(C)C)nc(C)c3o2)c(N[C@@H]2C[C@H](CO)[C@@H](O)[C@H]2O)n1` [Example 49], above 25 µM.

As to `CCOc1cc2cc(-c3c(C)nc(NCc4c(F)cccc4F)nc3N[C@@H]3C[C@H](CO)[C@@H](O)[C@H]3O)oc2c(C)n1` [Example 50], the EC90 amounted to 0.05 µM. Same read-out and setting: the result for `CCOc1cc2cc(-c3c(C)nc(NCC4CC4)nc3N[C@@H]3C[C@H](CO)[C@@H](O)C3)oc2c(C)n1` [Example 52] reads 0.3 µM; that for `Cc1nc(NCC(F)(F)F)nc(N[C@H]2C[C@H](O)[C@@H]3C[C@@H]32)c1-c1nc2ccccc2s1` [Example 53], 2.1 µM; that for `Cc1nc(NCC(F)(F)F)nc(N[C@@H]2CC[C@@H](O)C2)c1-c1nc2ccccc2s1` [Example 54], 1 µM. The same measure, in the same setting: the result for `CON=C1[C@H](Nc2nc(NCC(F)(F)F)nc(C)c2-c2nc3ccccc3s2)C[C@H](CO)[C@H]1O` [Example 55] reads 3.4 µM. Same read-out and setting: the result for `COc1cc(CNc2nc(C)c(-c3cc4cc(OCC5CC5)ncc4o3)c(N[C@@H]3C[C@H](CO)[C@@H](O)[C@H]3O)n2)cc(OC)c1` [Example 56] reads 0.06 µM.

`Cc1nc(NCC(C)(C)C)nc(N[C@@H]2C[C@H](CO)[C@@H](O)[C@H]2O)c1-c1cc2cc(OCC3CC3)ncc2o1` [Example 58]: the EC90 is 1 µM. Still for that read-out and setting: the result for `COCCNc1nc(C)c(-c2cc3cc(OCC4CC4)ncc3o2)c(N[C@@H]2C[C@H](CO)[C@@H](O)[C@H]2O)n1` [Example 59] reads 2 µM. With `CCCOc1cc2cc(-c3c(C)nc(NCC(C)(C)C)nc3N[C@@H]3C[C@H](CO)[C@@H](O)[C@H]3O)oc2cn1` [Example 61], the EC90 was above 1 µM. On the same count and under the same terms, the result for `CCCOc1cc2cc(-c3c(C)nc(NCC4CC4)nc3N[C@@H]3C[C@H](CO)[C@@H](O)[C@H]3O)oc2cn1` [Example 62] reads 0.7 µM; that for `Cc1nc(NCC(F)(F)F)nc(N[C@@H]2C[C@H](COC(=O)N3CCOCC3)[C@@H](O)[C@H]2O)c1-c1nc2ccccc2s1` [Example 63], 0.45 µM; that for `Cc1nc(NCC(F)(F)F)nc(N[C@@H]2C[C@H](COC(=O)N3CCCC3)[C@@H](O)[C@H]2O)c1-c1nc2ccccc2s1` [Example 64], 0.8 µM. The same measure, in the same setting: the result for `CCN(CC)C(=O)OC[C@H]1C[C@@H](Nc2nc(NCC(F)(F)F)nc(C)c2-c2nc3ccccc3s2)[C@H](O)[C@@H]1O` [Example 65] reads 1 µM. For the molecule `CNC(=O)OC[C@H]1C[C@@H](Nc2nc(NCC(F)(F)F)nc(C)c2-c2nc3ccccc3s2)[C@H](O)[C@@H]1O` [Example 66], the EC90 amounted to 0.85 µM. Same read-out and setting: the result for `Cc1nc(NCCCF)nc(N[C@@H]2C[C@H](CO)[C@@H](O)[C@H]2O)c1-c1nc2ccccc2s1` [Example 127] reads 0.7 µM.

Staying with this experiment, now noted: Hepatitis C virus, 72 h, HCV replicon cells, harvested day 3, replicon RNA by real time PCR; reported as range class; read-out: EC90 (μM) range.
For the molecule `CCCOc1cc2cc(-c3c(C)nc(NCCOC)nc3N[C@@H]3C[C@H](CO)[C@@H](O)[C@H]3O)oc2cn1` [Example 60], the EC90 was above 5 µM. Still for that read-out and setting: the result for `Nc1nc(Cl)c(-c2ccc(Oc3ccccc3)cc2)c(N[C@@H]2C[C@H](CO)[C@@H](O)[C@H]2O)n1` [Example 101] reads above 5 µM; that for `Nc1nc(Cl)c(-c2cc3ccccc3s2)c(N[C@@H]2C[C@H](CO)[C@@H](O)[C@H]2O)n1` [Example 102], above 5 µM. Still for that read-out and setting: the result for `Nc1nc(Cl)c(-c2ccccc2Oc2ccccc2)c(N[C@@H]2C[C@H](CO)[C@@H](O)[C@H]2O)n1` [Example 103] reads above 5 µM; that for `Nc1nc(Cl)c(-c2nccs2)c(N[C@@H]2C[C@H](CO)[C@@H](O)[C@H]2O)n1` [Example 104], above 5 µM; that for `Nc1nc(Cl)c(-c2nc3ccccc3s2)c(N[C@@H]2C[C@H](CO)[C@@H](O)[C@H]2O)n1` [Example 105], below 0.5 µM. Same read-out and setting: the result for `Nc1nc(Cl)c(-c2ncco2)c(N[C@@H]2C[C@H](CO)[C@@H](O)[C@H]2O)n1` [Example 106] reads above 5 µM.

For the molecule `Nc1nc(N[C@@H]2C[C@H](CO)[C@@H](O)[C@H]2O)c(-c2ncco2)c(-c2ncco2)n1` [Example 107], the EC90 was above 5 µM. The same measure, in the same setting: the result for `Nc1nc(Cl)c(-c2cc3cc(C(F)(F)F)ccc3o2)c(N[C@@H]2C[C@H](CO)[C@@H](O)[C@H]2O)n1` [Example 108] reads above 5 µM; that for `Nc1nc(Cl)c(-c2nc3ccccc3o2)c(N[C@@H]2C[C@H](CO)[C@@H](O)[C@H]2O)n1` [Example 109], below 0.5 µM.

In the case of `Nc1nc(Cl)c(-c2nc3ccc(F)cc3s2)c(N[C@@H]2C[C@H](CO)[C@@H](O)[C@H]2O)n1` [Example 110], the EC90 was 0.5 to 5 µM. Same read-out and setting: the result for `Nc1nc(Cl)c(-c2nc3cc(C(F)(F)F)ccc3s2)c(N[C@@H]2C[C@H](CO)[C@@H](O)[C@H]2O)n1` [Example 112] reads 0.5 to 5 µM; that for `Nc1ncc(-c2cc3ccncc3o2)c(N[C@@H]2C[C@H](CO)[C@@H](O)[C@H]2O)n1` [Example 113], 0.5 to 5 µM; that for `CN(C)c1ccc2nc(-c3c(Cl)nc(N)nc3N[C@@H]3C[C@H](CO)[C@@H](O)[C@H]3O)sc2c1` [Example 115], above 5 µM. On the same count and under the same terms, the result for `OC[C@H]1C[C@@H](Nc2nc(N3CCOCC3)nc(Cl)c2-c2nc3ccccc3s2)[C@H](O)[C@@H]1O` [Example 116] reads 0.5 to 5 µM. Still for that read-out and setting: the result for `CN(C)c1nc(Cl)c(-c2nc3ccccc3o2)c(N[C@@H]2C[C@H](CO)[C@@H](O)[C@H]2O)n1` [Example 117] reads 0.5 to 5 µM; that for `OC[C@H]1C[C@@H](Nc2ncnc(Cl)c2-c2nc3ccccc3s2)[C@H](O)[C@@H]1O` [Example 118], above 5 µM.

For `Cc1nc(N)nc(N[C@@H]2C[C@H](CO)[C@@H](O)[C@H]2O)c1-c1nc2ccccc2s1` [Example 119], the EC90 is below 0.5 µM. Turning to `COC[C@H]1C[C@@H](Nc2nc(N(C)C)nc(Cl)c2-c2nc3ccccc3s2)[C@@H]2OC(C)(C)O[C@H]12` [Example 120], the EC90 is above 5 µM. Still for that read-out and setting: the result for `COC[C@H]1C[C@@H](Nc2nc(N(C)C)nc(Cl)c2-c2nc3ccccc3s2)[C@H](O)[C@@H]1O` [Example 121] reads below 0.5 µM; that for `COC[C@H]1C[C@@H](Nc2nc(N(C)C)nc(C)c2-c2nc3ccccc3s2)[C@H](O)[C@@H]1O` [Example 123], above 5 µM. On the same count and under the same terms, the result for `OC[C@H]1C[C@@H](Nc2nc(NCC(F)(F)F)nc(Cl)c2-c2nc3ccccc3s2)[C@H](O)[C@@H]1O` [Example 124] reads below 0.5 µM. On the same count and under the same terms, the result for `Cc1nc(NCC(F)(F)F)nc(N[C@@H]2C[C@H](CO)[C@@H](O)[C@H]2O)c1-c1nc2ccccc2s1` [Example 125] reads below 0.5 µM. As to `OC[C@H]1C[C@@H](Nc2nc(NCCCF)nc(Cl)c2-c2nc3ccccc3s2)[C@H](O)[C@@H]1O` [Example 126], the EC90 is below 0.5 µM.

Still in this experiment, the particulars now being: Hepatitis C virus, 72 h, HCV replicon cells, harvested on day 3, replicon RNA by real time PCR; calculated EC90 reported as range class; read-out: EC90 (μM) range.
In the case of `OC[C@H]1C[C@@H](Nc2nc(NCC(F)(F)F)nc(C3CC3)c2-c2nc3ccccc3s2)[C@H](O)[C@@H]1O` [Example 128], the 90% effect concentration (EC90) was above 5 µM. Consider `OC[C@H]1C[C@@H](Nc2nc(NC(CF)CF)nc(Cl)c2-c2nc3ccccc3s2)[C@H](O)[C@@H]1O` [Example 129], for which the EC90 was below 0.5 µM. On the same count and under the same terms, the result for `Cc1nc(NC(CF)CF)nc(N[C@@H]2C[C@H](CO)[C@@H](O)[C@H]2O)c1-c1nc2ccccc2s1` [Example 130] reads above 5 µM; that for `C[C@H](Nc1nc(Cl)c(-c2nc3ccccc3s2)c(N[C@@H]2C[C@H](CO)[C@@H](O)[C@H]2O)n1)C(F)(F)F` [Example 131], below 0.5 µM; that for `Cc1nc(N[C@@H](C)C(F)(F)F)nc(N[C@@H]2C[C@H](CO)[C@@H](O)[C@H]2O)c1-c1nc2ccccc2s1` [Example 132], 0.5 to 5 µM. Turning to `CCOCCNc1nc(C)c(-c2nc(C)c(C)s2)c(N[C@@H]2C[C@H](CO)[C@H]3OC(C)(C)O[C@H]32)n1` [Example 133], the EC90 is above 5 µM.
